What all share (format): cell-based
The subject of data set [1] is P. falciparum DD2 (chloroquine-resistant). The data set can be described thus: Anti-malarial activity, P. falciparum DD2 culture, 72 hour, DNA content by flow cytometry. The note with it: Plasmodium falciparum, synchronized ring-stage parasites. The procedure:
Numerous compounds were screened in cultures of the malaria parasite P. falciparum 3D7 (chloroquine-sensitive) and DD2 (chloroquine-resistant). The compounds were also screened for toxixcity against 3T3 cells, HepG2 cells, and in a hemolysis assay. In brief, P. falciparum parasites were cultured in RPMI 1640 (Invitrogen) supplemented with Albumax II (Invitrogen). For synchronization, schizont stage parasites were magnet purified using a SuperMACS™ II Cell Separation Unit (Miltenyi Biotech). For IC50 determinations, synchronized ring-stage parasites were plated at 0.5% parasitemia and 8% hematocrit in 96-well plates at a total volume of 50 μL. Serial dilutions of 2× concentration of the respective compound, ranging from 2.5 μM to 20 nM, were added to the wells to bring the total volume up to 100 μL and 4% hematocrit. Compounds were assayed for a 72 hour period, after which the cultures were fixed with a solution of 4% paraformaldehyde and 0.08% glutaraldhyde in PBS. The cells were then permeabilized with 0.25% Triton X-100, and SYTOX Green Nucleic Acid Stain (Invitrogen) in PBS was added to a final concentration of 5 μM. DNA content, as an indicator of parasitemia, was analyzed on an Accuri C6 Flow Cytometer with C-Sampler. IC50 curves were generated using GraphPad Prism (GraphPad Software).
On the technique in general: A flow cytometer gives signals particle by particle.

Data set [2] in a line: Cytotoxicity against HepG2 cells. The note with it: human, HepG2 cells; read-out: Cytotoxicity HepG2 EC50.
The nature of data set [3]: Cytotoxicity against 3T3 cells. The note with it: mouse, 3T3 cells; read-out: Cytotoxicity 3T3 EC50.
In data set [4] the test system is P. falciparum 3D7 (chloroquine-sensitive). In words: Anti-malarial activity, P. falciparum 3D7 culture, 72 hour, DNA content by flow cytometry. Conditions: Plasmodium falciparum, 3D7, 72 h, synchronized ring-stage parasites. The procedure, abridged:
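Magnet-synchronized ring-stage parasites in RPMI 1640/Albumax II were plated at 0.5% parasitemia, 4% final hematocrit, with compound added as 2× dilutions (2.5 μM to 20 nM) for 72 h. Fixed, Triton-permeabilized cells were stained with SYTOX Green (5 μM final), and DNA content was measured by flow cytometry to derive IC50.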

A short description of the next data set: in vitro.

The structures appear in SMILES notation. In brackets after ≈: the same amount, converted by molar mass.

As a reminder, the IC50 is the concentration that gives 50% inhibition. Lower therefore signals greater potency in that assay. One may read the EC50 as the concentration needed to bring the measured effect to its halfway point. In the case of `N=C(N)NCCSc1cc(SCCNC(=N)N)c(C(F)(F)F)cc1NC(=O)c1cc(C(=O)Nc2cc(C(F)(F)F)c(SCCNC(=N)N)cc2SCCNC(=N)N)ncn1` [Compound 114], the IC50 in data set [1] was 0.656 µM; in data set [4] it was 0.672 µM. In addition, the EC50 in data set [2] came to 57 µM; in data set [3] it was 31 µM; in “in vitro” it was 61 µg/mL (≈ 66.1 µM).
Regarding `N=C(N)NCCSc1cc(SCCN)c(NC(=O)c2cc(C(=O)Nc3cc(C(F)(F)F)c(SCCNC(=N)N)cc3SCCN)ncn2)cc1C(F)(F)F` [Compound 115], the IC50 in data set [1] amounted to 0.664 µM; in data set [4], 0.68 µM. For the same compound, the EC50 came to 47 µM in data set [2], 26 µM in data set [3] and 35 µg/mL (≈ 41.7 µM) in the data set “in vitro”.
On the same counts, the results for `N=C(N)NCCCc1cc(SCCN)c(NC(=O)c2cc(C(=O)Nc3cc(C(F)(F)F)c(CCCNC(=N)N)cc3SCCN)ncn2)cc1C(F)(F)F` [Compound 116] are 0.398 µM, 0.706 µM, 95 µM, 76 µM and 39 µg/mL (≈ 48.6 µM).
On the same counts, the results for `N=C(N)NCCCCOc1cc(OCCCCNC(=N)N)c(C(F)(F)F)cc1NC(=O)Nc1cc(C(F)(F)F)c(OCCCCNC(=N)N)cc1OCCCCNC(=N)N` [Compound 128] are 0.886 µM, 0.881 µM, 232 µM, 121 µM and 58 µg/mL (≈ 67.1 µM).
On the same counts, the results for `N=C(N)NCCCCC(=O)Nc1ccc(-c2nnc(-c3ccc(NC(=O)CCCCNC(=N)N)cc3)o2)cc1` [Compound 131] are 0.065 µM, 0.042 µM, 356 µM, 322 µM and 212 µg/mL (≈ 397 µM).
For the compound `NCCN1CCc2ccc(NC(=O)c3cc(C(=O)Nc4ccc5c(c4)CCN(CCN)CC5)ncn3)cc2CC1` [Compound 146], the IC50 in data set [1] worked out at 0.331 µM; in data set [4] it was 0.308 µM. Further, the EC50 in data set [2] worked out at 373 µM; in data set [3] it was 373 µM; in the data set “in vitro”, 123 µg/mL (≈ 227 µM).
As to `CC(C)N1CCc2ccc(NC(=O)c3cc(C(=O)Nc4ccc5c(c4)CCN(C(C)C)CC5)ncn3)cc2CC1` [Compound 147], the half-maximal inhibitory concentration (IC50) in data set [1] came to 0.829 µM; in data set [4] it was 0.696 µM. In addition, the EC50 is above 100 µM in data set [2], above 100 µM in data set [3] and 560 µg/mL (≈ 1040 µM) in the data set “in vitro”.
For the compound `N=C(N)NCCCc1cccc(-c2ccc3c4ccc(-c5cccc(CCCNC(=N)N)c5)cc4n(CCCNC(=N)N)c3c2)c1` [Compound 155], the results for the IC50 in data set [1] and in data set [4] were 0.457 µM and 0.272 µM, respectively. Moreover, the EC50 was 100 µM in data set [2], 131 µM in data set [3] and 6 µg/mL (≈ 9.73 µM) in “in vitro”.
On the same counts, the results for `N=C(N)NCCCCC(=O)Nc1ccc(Oc2cccc(Oc3ccc(NC(=O)CCCCNC(=N)N)cc3)c2)cc1` [Compound 157] are 0.244 µM, 0.322 µM, above 100 µM, above 100 µM and 299 µg/mL (≈ 520 µM).
On the same counts, the results for `FC(F)(F)c1ccc(CN2CCNCC2)cc1Oc1ccc(Oc2cc(CN3CCNCC3)ccc2C(F)(F)F)cc1` [Compound 158] are 1.09 µM, 0.655 µM, 29 µM, 14 µM and 17 µg/mL (≈ 28.6 µM).
On the same counts, the results for `Fc1cc(NC2CCNCC2)cc(Oc2ccc(Oc3cc(F)cc(NC4CCNCC4)c3)cc2)c1` [Compound 164] are 0.98 µM, 0.61 µM, 78 µM, 23 µM and 15 µg/mL (≈ 30.3 µM).
As for `NCc1cc(C(F)(F)F)ccc1Oc1ccc(Oc2ccc(C(F)(F)F)cc2CN)cc1` [Compound 166], the IC50 in data set [1] stood at 1.23 µM; in data set [4], 0.991 µM. In addition, the EC50 is 71 µM in data set [2], 17 µM in data set [3] and 364 µg/mL (≈ 798 µM) in the data set “in vitro”.

For the origin of these results see patent publication US20150094294A1, “COMPOUNDS AND METHODS FOR TREATING MALARIA” (Cellceutix Corporation, priority 2012, published 2015).
